Experimental data as given in patent US10080365B2, “Use of strobilurin type compounds for combating phytopathogenic fungi resistant to Qo inhibitors” (BASF SE, priority 2011, dated 2018).
Like-named read-outs stand apart in the source and are kept apart here.

Legend:
[1] = test system: Septoria tritici isolates containing the G143A in the cytochrome b gene; assay: Glass house Trial 3: control of leaf blotch on wheat caused by two Septoria tritici isolates containing G143A; assay type: in vivo; conditions: % diseased leaf area after about 28 days
Protocol: The spray solutions were prepared in several steps:
The stock solution was prepared as follows: 1.26 ml of a 1:1 mixture of cyclohexanone and dimethylsulfoxide was added to 8.4 mg of active ingredient. Next, 40.74 ml of a mixture of water, acetone (10%), the emulsifier Wettol (0.1%) and the wetting agent Silwet (0.05%) was added. This stock solution was then further diluted with the described solvent-emulsifier-water mixture to the desired concentrations.
Trial 3: Control of Leaf Blotch on Wheat Caused by Caused by Two Septoria tritici Isolates Containing the G143A in the Cytochrome b Gene for their Cytochrome Bc1 Complex
Wheat plants were grown in pots. These plants were sprayed to run-off with an aqueous suspension, containing the desired concentration of active ingredient. The next day, the treated plants were inoculated with an aqueous suspension of Septoria tritici. After inoculation, the trial plants were covered with a lid and immediately transferred to a chamber with a relative humidity of about 83 to 85% and 19.5 to 20° C. After 4 days the lid was removed. Altogether, the trial plants were cultivated for about 28 days in that greenhouse chamber. The extent of fungal attack on the leaves was then visually assessed as % diseased leaf area.

[2] = test system: Septoria tritici (Qo-inhibitor sensitive, wild-type); assay: Microtiter test, Septoria tritici Qo-inhibitor sensitive wild-type (Use Example 1); assay type: cell-based; conditions: turbidity at 620 nm, read-out: Sensitive Septoria tritici isolate (wild type) (S-IC50)
Protocol: (§1) The active substances were formulated separately as a stock solution in dimethyl sulfoxide (DMSO) at a concentration of 10 000 ppm.
(§2) Activity against the Septoria blotch pathogen caused by Septoria tritici in the microtiter test
(§3) Fungal strains used: • a) Septoria tritici (Qo-inhibitor sensitive, wild-type) • b) Septoria tritici (Qo-inhibitor-resistant, G143A mutant)
(§4) 100 ml 2% Malt extract in water at pH6.8 were inoculated with microspores from 2 week old cultures grown on 2% malt extract+2% agar in Petri dishes and incubated for 3 days on a rotary shaker at 24° C. und 150 rpm. The culture was harvested, glycerol was added (15% (v/v) and kept frozen at −20° C. in aliquots of 1 ml.
(§5) 1 ml stock suspension was thawed and suspended into 800 ml of 2% malt extract in water at pH 6.8. Compounds were diluted from stock solution in (dimethylsulfoxide) DMSO in 10 steps. The compound solutions were diluted 1/5 with sterile deionized water before use. 5 μl of the compound solutions were transferred into empty microplates. The plates were then filled with 195 μl of the microspore suspension of each strain.
(§6) The antifungal activity was determined by measuring the turbidity of a culture in 96-well microplates in the presence of test compounds. Fungal growth was measured by recording the optical density at 620 nm every 15 h for 150 h. The relative antifungal activity was calculated by comparison of the effect of the test compounds with the effect of a DMSO control and a standard fungicide.
(§7) IC50-values (concentration of test compound resulting in 50% inhibition of fungal growth) were calculated from the resulting dose-response for each compound and strain. The initial concentration of the test compounds and the 10 steps of dilution (1:4 each) allowed IC50-values from 0.001 to 100 μmol/l (μM) to be assessed.

[3] = test system: Septoria tritici (Qo-inhibitor-resistant, G143A mutant); assay: Microtiter test, Septoria tritici Qo-inhibitor-resistant G143A mutant (Use Example 1); assay type: cell-based; conditions: for IC50: read-out: Resistant Septoria tritici isolate (G143A mutation) (R-IC50); for Resistance factor RF = R-IC50/S-IC50: ratio of IC50 for G143A resistant isolate to IC50 for wild-type sensitive isolate
Protocol: as §1, §2, §3, §4, §5, §6, §7

[4] = Resistant Septoria tritici isolate 1 (G143A mutation), 12.5 ppm
[5] = Resistant Septoria tritici isolate 1 (G143A mutation), 25 ppm
[6] = Resistant Septoria tritici isolate 1 (G143A mutation), 50 ppm
[7] = Resistant Septoria tritici isolate 1 (G143A mutation), 100 ppm
[8] = Resistant Septoria tritici isolate 1 (G143A mutation), 200 ppm
[9] = Resistant Septoria tritici isolate 2 (G143A mutation), 12.5 ppm
[10] = Resistant Septoria tritici isolate 2 (G143A mutation), 25 ppm
[11] = Resistant Septoria tritici isolate 2 (G143A mutation), 50 ppm
[12] = Resistant Septoria tritici isolate 2 (G143A mutation), 100 ppm
[13] = Resistant Septoria tritici isolate 2 (G143A mutation), 200 ppm
[14] = microtiter test, Qo-inhibitor-resistant G143A mutant, turbidity at 620 nm

CO/C=C(C(=O)OC)\C(C)=C/COc1ccn(-c2ccc(Cl)cc2)n1 [Compound I-7, (Z)-5-[1-(4-Chloro-phenyl)-1H-pyrazol-3-yloxy]-2-[1-methoxy-meth-(E)-yl-idene]-3-methyl-pent-3-enoic acid methyl ester]
Disease level (%) [1, 4]: 100% | Disease level (%) [1, 5]: 80% | Disease level (%) [1, 6]: 20% | Disease level (%) [1, 7]: 3% | Disease level (%) [1, 8]: 3% | Disease level (%) [1, 9]: 90% | Disease level (%) [1, 10]: 15% | Disease level (%) [1, 11]: 5% | Disease level (%) [1, 12]: 1% | Disease level (%) [1, 13]: 0%

CNC(=O)C(=NOC)C(C)=CCOc1ccn(-c2ccc(F)cc2F)n1 [Compound I-11]
Disease level (%) [1, 4]: 100% | Disease level (%) [1, 5]: 90% | Disease level (%) [1, 6]: 30% | Disease level (%) [1, 7]: 3% | Disease level (%) [1, 8]: 1% | Disease level (%) [1, 9]: 70% | Disease level (%) [1, 10]: 50% | Disease level (%) [1, 11]: 30% | Disease level (%) [1, 12]: 5% | Disease level (%) [1, 13]: 1%

CNC(=O)C(=NOC)C(C)=CCOc1ccn(-c2ccc(F)cc2Cl)n1 [Compound I-14]
Disease level (%) [1, 4]: 100% | Disease level (%) [1, 5]: 80% | Disease level (%) [1, 6]: 70% | Disease level (%) [1, 7]: 15% | Disease level (%) [1, 8]: 3% | Disease level (%) [1, 9]: 90% | Disease level (%) [1, 10]: 70% | Disease level (%) [1, 11]: 15% | Disease level (%) [1, 12]: 5% | Disease level (%) [1, 13]: 1%

Cn1nnn(-c2ccccc2COc2ccn(-c3ccc(Cl)cc3)n2)c1=O [Compound I-211]
IC50 [2]: 0.44 µM | Disease level (%) [1, 4]: 80% | Disease level (%) [1, 5]: 60% | Disease level (%) [1, 6]: 10% | Disease level (%) [1, 7]: 3% | Disease level (%) [1, 8]: 1% | Disease level (%) [1, 9]: 30% | Disease level (%) [1, 10]: 10% | Disease level (%) [1, 11]: 5% | Disease level (%) [1, 12]: 1% | Disease level (%) [1, 13]: 0% | IC50 [3, 14]: 1.1 µM | Resistance factor RF = R-IC50/S-IC50 [3]: 2.6

CON=C(C(=O)OC)C(C)=CCOc1ncn(-c2ccc(Cl)c(Cl)c2)n1 [Compound I-291]
IC50 [2]: 1 µM | IC50 [3, 14]: 18 µM | Resistance factor RF = R-IC50/S-IC50 [3]: 18.0

CON=C(C(=O)OC)C(C)=CCOc1ncn(-c2ccc(Br)cc2)n1 [Compound I-292]
IC50 [2]: 7.9 µM | IC50 [3, 14]: 33 µM | Resistance factor RF = R-IC50/S-IC50 [3]: 4.2

CON=C(C(=O)OC)C(C)=CCOc1ncn(-c2cc(C(F)(F)F)ccc2Cl)n1 [Compound I-298]
IC50 [2]: 3.6 µM | IC50 [3, 14]: 31 µM | Resistance factor RF = R-IC50/S-IC50 [3]: 8.6

CON=C(C(=O)OC)C(C)=CCOc1ncn(-c2ccc(Cl)cc2Cl)n1 [Compound I-303]
IC50 [2]: 0.27 µM | IC50 [3, 14]: 4.6 µM | Resistance factor RF = R-IC50/S-IC50 [3]: 17.0

CCc1ccc(-n2cnc(OCC=C(C)C(=NOC)C(=O)OC)n2)cc1 [Compound I-304]
IC50 [2]: 0.53 µM | IC50 [3, 14]: 9.1 µM | Resistance factor RF = R-IC50/S-IC50 [3]: 17.2

CNC(=O)C(=NOC)C(C)=CCOc1ncn(-c2ccc(Cl)cc2Cl)n1 [Compound I-305]
IC50 [2]: 9.3 µM | IC50 [3, 14]: 32 µM | Resistance factor RF = R-IC50/S-IC50 [3]: 3.4

CON=C(C(=O)OC)C(C)=CCOc1ccn(-c2cc(Cl)ccc2C)n1 [Compound I-307]
IC50 [2]: 19 µM | IC50 [3, 14]: 67 µM | Resistance factor RF = R-IC50/S-IC50 [3]: 3.5

CON=C(C(=O)OC)C(C)=CCOc1ncn(-c2ccc(C)c(Cl)c2)n1 [Compound I-310]
IC50 [2]: 0.39 µM | IC50 [3, 14]: 11 µM | Resistance factor RF = R-IC50/S-IC50 [3]: 28.2

CON=C(C(=O)OC)C(C)=CCOc1ncn(-c2ccccc2C)n1 [Compound I-319]
IC50 [2]: 17 µM | Resistance factor RF = R-IC50/S-IC50 [3]: 6.0

CON=C(C(=O)OC)C(C)=CCOc1ncn(-c2cc(C)ccc2C)n1 [Compound I-324]
IC50 [2]: 1.9 µM | IC50 [3, 14]: 38 µM | Resistance factor RF = R-IC50/S-IC50 [3]: 20.0

CON=C(C(=O)OC)C(C)=CCOc1ncn(-c2ccc(C(F)(F)F)cc2Cl)n1 [Compound I-326]
IC50 [2]: 1.2 µM | IC50 [3, 14]: 18 µM | Resistance factor RF = R-IC50/S-IC50 [3]: 15.0

CON=C(C(=O)OC)C(C)=CCOc1ncn(-c2cc(Cl)cc(Cl)c2)n1 [Compound I-331]
IC50 [2]: 1.8 µM | IC50 [3, 14]: 25 µM | Resistance factor RF = R-IC50/S-IC50 [3]: 13.9

CNC(=O)/C(=N/OC)c1ccccc1COc1cc(C)ccc1C [Dimoxystrobin, reference compound]
IC50 [2]: 7.1 µM | IC50 [3, 14]: > 100 µM

CO/C=C(/C(=O)OC)c1ccccc1CO/N=C(C)/C=C/c1ccc(Cl)cc1 [Enestroburin, reference compound]
IC50 [2]: 4.5 µM | IC50 [3, 14]: > 100 µM

CO/N=C(/C(=O)OC)c1ccccc1COc1ccccc1C [Kresoximmethyl]
IC50 ([2]; Zymoseptoria tritici): 0.76 µM | IC50 ([3]; Zymoseptoria tritici): > 100 µM

CNC(=O)/C(=N/OC)c1ccccc1Oc1ccccc1 [Metominostrobin, reference compound]
IC50 ([2]; Zymoseptoria tritici): > 100 µM | IC50 ([3]; Zymoseptoria tritici): > 100 µM

CNC(=O)/C(=N/OC)c1ccccc1CO/N=C(C)/C(=N/OC)C(/C)=N/OC [Orysastrobin, reference compound]
IC50 [2]: 27 µM | IC50 [3, 14]: > 100 µM

CO/C=C(/C(=O)OC)c1ccccc1COc1cccc(C(F)(F)F)n1 [Picoxystrobin, reference compound]
IC50 [2]: 2.3 µM | IC50 [3, 14]: > 100 µM

COC(=O)N(OC)c1ccccc1COc1c(C)c(-c2ccccc2)nn1C [Pyrametostrobin, reference compound]
IC50 [2]: > 100 µM | IC50 [3, 14]: > 100 µM

CO/C=C(/C(=O)OC)c1ccccc1COc1cc(-c2ccc(Cl)cc2)nn1C [Pyraoxystrobin, reference compound]
IC50 [2]: 1.6 µM | IC50 [3, 14]: > 100 µM

CON=C(C(=O)OC)c1ccccc1CON=C(C)c1cccc(C(F)(F)F)c1 [Trifloxystrobin, reference compound]
IC50 ([2]; Zymoseptoria tritici): 0.52 µM | Disease level (%) [1, 4]: 100% | Disease level (%) [1, 5]: 100% | Disease level (%) [1, 6]: 90% | Disease level (%) [1, 7]: 90% | Disease level (%) [1, 8]: 90% | Disease level (%) [1, 9]: 80% | Disease level (%) [1, 10]: 70% | Disease level (%) [1, 11]: 70% | Disease level (%) [1, 12]: 70% | Disease level (%) [1, 13]: 60% | IC50 ([3]; Zymoseptoria tritici): > 100 µM
